US12516131B2, “Methods for preventing acute kidney injury” (University of Maryland, Baltimore, priority 2018, dated 2026)
Where two headings read alike, the source gives them in different places. One block for each compound: values may come before it.

Columns and labels:
[1] = Lability of reconstituted/diluted DIGIFAB (ouabain binding capacity after storage), protection by E-64; assay type: physicochemical; details: E-64 at final concentration 1 μM in diluted DIGIFAB
Text: To maintain the immuno-neutralizing activity of stored dilute DIGIFAB samples, we tested the effect of the irreversible protease (primarily papain) inhibitor, E-64.

[2] = test system: ischemia-induced renal injury; details: somewhat similar rat model; cited from earlier work
[3] = test system: renal ischemia/reperfusion (RIR) in Wistar rats; test: Example 1: plasma creatinine in rats following renal ischemia/reperfusion (45 min bilateral renal pedicle clamping); assay type: in vivo, rat; details: Ouabain infusion (10 μg/kg/day) / Saline injection; n=9; ±SE
Method: FIG. 7. Effect of DIGIFAB on plasma creatinine in rats following renal ischemia/reperfusion (RIR). Normal male Wistar rats were implanted on “Day 0” with a subcutaneous minipump to deliver ouabain (10 μg/kg/day: open symbols) or vehicle (6 μl/day; solid symbols). Beginning on Day 13, half of the ouabain-infused rats and half of the vehicle-infused rats were injected with DigiFab (triangles), and the remainder (circles) were injected with an equal volume of saline: The DigiFab-treated rats received 0.2 ml DigiFab (10 mg/ml) at 15 hr and 6 hr, and 0.1 ml DigiFab 1 hr pre-operatively. […] Plasma creatinine was measured with a commercial creatinine enzymatic assay kit. […] The subsequent decline toward baseline (measured at 72 hrs; i.e., Day 17) was more rapid (i.e., the slope was steeper) in the DigiFab-injected rats than in the saline-injected rats. […]
Male Wistar ICS rats (˜300 g) on normal diet were implanted on “Day 0” with a subcutaneous minipump to deliver ouabain—see FIG. 7—(10 μg/kg/day; open symbols) or vehicle (6 μl/day; solid symbols). […] Plasma creatinine was measured after ultrafiltration with 10K filters using a slightly modified rat creatinine enzymatic assay kit (Crystal Chem, Inc., Elk Grove Village, IL). […] The subsequent decline toward baseline (measured at 72 hrs; i.e., Day 17) was more rapid (i.e., the slope was steeper) in the DigiFab-injected rats than in the saline-injected rats. […]

[4] = rats, cited from earlier work

effect of E-64 on stability of DIGIFAB's ouabain binding capacity [1]: markedly improved the stability
SMILES: CC(C)C[C@H](NC(=O)[C@H]1C[C@@H]1C(=O)O)C(=O)NCCCCNC(=N)N [E-64, (1S,2S)-2-(((S)-1-((4-guanidinobutyl)amino)-4-methyl-1-oxopentan-2-yl)carbamoyl)cyclopropanecarboxylic acid]

SMILES: C[C@]12CC[C@H](O)C[C@H]1CC[C@@H]1[C@@H]2CC[C@]2(C)[C@@](O)(c3ccoc3)CC[C@]12O [rostafuroxin]
effect on ischemia-induced renal injury [2]: attenuated ischemia-induced renal injury

SMILES: C[C@@H]1O[C@@H](O[C@H]2C[C@@H](O)[C@]3(CO)[C@H]4[C@H](O)C[C@]5(C)[C@@H](C6=CC(=O)OC6)CC[C@]5(O)[C@@H]4CC[C@]3(O)C2)[C@H](O)[C@H](O)[C@H]1O [Ouabain]
Percent Recovery of plasma creatinine toward baseline, 24 to 72 hrs post-op [3]: 38.6±17.5%
steady state plasma level ([4]; ouabain infused chronically at 3 μg/Kg/24 hr): ~1.95 nM
steady state plasma level ([4]; ouabain infused chronically at 10 μg/Kg/24 hr): ~2.2 nM
steady state plasma level ([4]; ouabain infused chronically at 30 μg/Kg/24 hr): ~4.8 nM
